Assay results as given in patent US11154058B2, “Fungicidal compositions” (SYNGENTA PARTICIPATIONS AG, priority 2017, dated 2021).

Assays:
Phakopsora pachyrhizi = Phakopsora pachyrhizi / soybean / preventative (soybean rust); format: in vivo; conditions: foliar, soybean leaf disc, compared to untreated control
Description: Phakopsora pachyrhizi/Soybean/Preventative (Soybean Rust) Soybean leaf disks are placed on water agar in multiwell plates (24-well format) and sprayed with the formulated test compound diluted in water. One day after application leaf discs are inoculated by spraying a spore suspension on the lower leaf surface. After an incubation period in a climate cabinet of 24-36 hours in darkness at 20° C. and 75% rh leaf disc are kept at 20° C. with 12 h light/day and 75% rh. The activity of a compound is assessed as percent disease control compared to untreated when an appropriate level of disease damage appears in untreated check leaf disks (12-14 days after application).

[1] = tested on: Puccinia recondita f. Sp. Tritici; assay: Puccinia recondita f. sp. tritici / wheat / leaf disc curative (brown rust); format: in vivo; conditions: foliar, compared to untreated control, read-out: disease control
Description: Puccinia recondita f. Sp. Tritici/Wheat/Leaf Disc Curative (Brown Rust)
Wheat leaf segments cv. Kanzler are placed on agar in multiwell plates (24-well format). The leaf segments are inoculated with a spore suspension of the fungus. Plates were stored in darkness at 19° C. and 75% rh. The formulated test compound or mixture composition diluted in water was applied 1 day after inoculation. The leaf segments were incubated at 19° C. and 75% rh under a light regime of 12 h light/12 h darkness in a climate cabinet and the activity of a compound or mixture composition was assessed as percent disease control compared to untreated when an appropriate level of disease damage appears in untreated check leaf segments (6-8 days after application).

[2] = tested on: Blumeria graminis f. Sp. Tritici (Erysiphe graminis f. Sp. Tritici); assay: Blumeria graminis f. sp. tritici / wheat / leaf disc preventative (powdery mildew on wheat); format: in vivo; conditions: foliar, compared to untreated control, read-out: disease control
Description: Blumeria graminis f. Sp. Tritici (Erysiphe graminis f. Sp. Tritici)/Wheat/Leaf Disc Preventative (Powdery Mildew on Wheat)
Wheat leaf segments cv. Kanzler were placed on agar in a multiwell plate (24-well format) and sprayed with the formulated test compound or mixture composition diluted in water. The leaf disks were inoculated by shaking powdery mildew infected plants above the test plates 1 day after application. The inoculated leaf disks were incubated at 20° C. and 60% rh under a light regime of 24 h darkness followed by 12 h light/12 h darkness in a climate chamber and the activity of a compound or mixture composition was assessed as percent disease control compared to untreated when an appropriate level of disease damage appears on untreated check leaf segments (6-8 days after application).

[3] = tested on: Puccinia recondita f. Sp. Tritici; assay: Puccinia recondita f. sp. tritici / wheat / leaf disc preventative (brown rust); format: in vivo; conditions: foliar, compared to untreated control, read-out: disease control
Description: Puccinia recondita f. Sp. Tritici/Wheat/Leaf Disc Preventative (Brown Rust) Wheat leaf segments cv. Kanzler were placed on agar in multiwell plates (24-well format) and sprayed with the formulated test compound or mixture composition diluted in water. The leaf disks were inoculated with a spore suspension of the fungus 1 day after application. The inoculated leaf segments were incubated at 19° C. and 75% rh under a light regime of 12 h light/12 h darkness in a climate cabinet and the activity of a compound or mixture composition was assessed as percent disease control compared to untreated when an appropriate level of disease damage appears in untreated check leaf segments (7-9 days after application).

melting point	Compound	pest or weed control at 200 ppm (Phakopsora pachyrhizi)	pest or weed control at 200 ppm [1]	pest or weed control at 200 ppm [2]	pest or weed control at 200 ppm [3]
107 to 108 °C	CCN(C)/C=N/c1cc(OC)c(C(O)(c2cc(F)cc(F)c2)C(F)(F)F)cc1C (centres unmarked) [Q.010, N′-[4-[1-(3,5-difluorophenyl)-2,2,2-trifluoro-1-hydroxy-ethyl]-5-methoxy-2-methyl-phenyl]-N-ethyl-N-methyl-formamidine]	≥ 80%	≥ 80%	≥ 80%	≥ 80%
110 to 111 °C	COc1cc(/N=C/N(C)C(C)C)c(C)cc1C(O)(c1ccccc1)C(F)(F)F (centres unmarked) [Q.008, N-isopropyl-N′-[5-methoxy-2-methyl-4-(2,2,2-trifluoro-1-hydroxy-1-phenyl-ethyl)phenyl]-N-methyl-formamidine]	≥ 80%	≥ 80%		≥ 80%
	CCCCC(O)(c1cc(C)c(/N=C/N(C)C(C)C)cc1OC)C(F)(F)F (centres unmarked) [Q.007, N′-[4-[1-hydroxy-1-(trifluoromethyl)pentyl]-5-methoxy-2-methyl-phenyl]-N-isopropyl-N-methyl-formamidine]	≥ 80%	≥ 80%	≥ 80%	≥ 80%
	CCCCOCC(O)(c1cc(C)c(/N=C/N(C)CC)cc1OC)C(F)(F)F (centres unmarked) [Q.002, N′-[4-[1-(butoxymethyl)-2,2,2-trifluoro-1-hydroxy-ethyl]-5-methoxy-2-methyl-phenyl]-N-ethyl-N-methyl-formamidine]	≥ 80%	≥ 80%	≥ 80%	≥ 80%
90 to 95 °C	C=C(C)CC(O)(c1cc(C)c(/N=C/N(C)C(C)C)cc1OC)C(F)(F)F (centres unmarked) [Q.006, N′-[4-[1-hydroxy-3-methyl-1-(trifluoromethyl)but-3-enyl]-5-methoxy-2-methyl-phenyl]-N-isopropyl-N-methyl-formamidine]	≥ 80%	≥ 80%	≥ 80%	≥ 80%
90 to 93 °C	COc1cc(/N=C/N(C)C(C)C)c(C)cc1C(O)(C1CC1)C(F)(F)F (centres unmarked) [Q.003, N′-[4-(1-cyclopropyl-2,2,2-trifluoro-1-hydroxy-ethyl)-5-methoxy-2-methyl-phenyl]-N-isopropyl-N-methyl-formamidine]	≥ 80%	≥ 80%	≥ 80%	≥ 80%
	CCO/N=C(\C)CC(O)(c1cc(C)c(/N=C/N(C)CC)cc1OC)C(F)(F)F (centres unmarked) [Q.001, N′-[4-[(3E)-3-ethoxyimino-1-hydroxy-1-(trifluoromethyl)butyl]-5-methoxy-2-methyl-phenyl]-N-ethyl-N-methyl-formamidine]	≥ 80%	≥ 80%	≥ 80%	≥ 80%
115 to 117 °C	CCN(C)/C=N/c1cc(OC)c(C(O)(c2ccccc2C)C(F)(F)F)cc1C (centres unmarked) [Q.009, N-ethyl-N′-[5-methoxy-2-methyl-4-[2,2,2-trifluoro-1-hydroxy-1-(o-tolyl)ethyl]phenyl]-N-methyl-formamidine]	≥ 80%	≥ 80%	≥ 80%	≥ 80%
	CCN(C)/C=N/c1cc(OC)c(C(O)(COCC2CCC2)C(F)(F)F)cc1C (centres unmarked) [Q.004, N′-[4-[1-(cyclobutylmethoxymethyl)-2,2,2-trifluoro-1-hydroxy-ethyl]-5-methoxy-2-methyl-phenyl]-N-ethyl-N-methyl-formamidine]	≥ 80%	≥ 80%	≥ 80%	≥ 80%
	CCN(C)/C=N/c1cc(OC)c(C(O)(COC2CCCC2)C(F)(F)F)cc1C (centres unmarked) [Q.005, N′-[4-[1-(cyclopentoxymethyl)-2,2,2-trifluoro-1-hydroxy-ethyl]-5-methoxy-2-methyl-phenyl]-N-ethyl-N-methyl-formamidine]	≥ 80%			
